From patent US12077503B2, “Substituted cyclic amides and their use as herbicides” (FMC CORPORATION, priority 2015, dated 2024)

Key:
Type in all cases: in vivo
[1] = tested on: giant foxtail (Setaria faberi); assay: Test G Post-Emergence Protocol; settings: Setaria faberi, post-emergence, 312 h, read-out: Foxtail, Giant damage rating; for pest or weed control at 15.625 g/ha: 15.625 g ai/ha, evaluated after 13 days (100=total damage to plant; 0=no damage to plant); for pest or weed control at 62.5 g/ha: 62.5 g ai/ha; for pest or weed control at 62.5 g/ha / pest or weed control at 250 g/ha: evaluated after 13 days, 100=total damage to plant, 0=no damage to plant; for pest or weed control at 250 g/ha: 250 g ai/ha
In short: (§1)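 A glasshouse post-emergence test: 8-day-old plants sprayed at 15.625, 62.5 or 250 g/ha, then grown at 24/16 °C day/night with 14 h light and 65% humidity. Damage rated 13 days later, 0–100.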

[2] = tested on: velvetleaf (Abutilon theophrasti); assay: Test G Post-Emergence Protocol; settings: Abutilon theophrasti, post-emergence, 312 h, read-out: Velvetleaf damage rating; for pest or weed control at 15.625 g/ha: 15.625 g ai/ha, evaluated after 13 days (100=total damage to plant; 0=no damage to plant); for pest or weed control at 62.5 g/ha: 62.5 g ai/ha; for pest or weed control at 62.5 g/ha / pest or weed control at 250 g/ha: evaluated after 13 days, 100=total damage to plant, 0=no damage to plant; for pest or weed control at 250 g/ha: 250 g ai/ha
In short: as §1

[3] = tested on: redroot pigweed (Amaranthus retroflexus); assay: Test G Post-Emergence Protocol; settings: Amaranthus retroflexus, post-emergence, 312 h, read-out: Pigweed, Redroot damage rating; for pest or weed control at 15.625 g/ha: 15.625 g ai/ha, evaluated after 13 days (100=total damage to plant; 0=no damage to plant); for pest or weed control at 62.5 g/ha: 62.5 g ai/ha; for pest or weed control at 62.5 g/ha / pest or weed control at 250 g/ha: evaluated after 13 days, 100=total damage to plant, 0=no damage to plant; for pest or weed control at 250 g/ha: 250 g ai/ha
In short: as §1

[4] = tested on: ivy-leaved morning glory (Ipomoea hederacea); assay: Test G Post-Emergence Protocol; settings: Ipomoea, post-emergence, 312 h, read-out: Morningglory, Ivy-leaved damage rating; for pest or weed control at 15.625 g/ha: 15.625 g ai/ha, evaluated after 13 days (100=total damage to plant; 0=no damage to plant); for pest or weed control at 62.5 g/ha: 62.5 g ai/ha; for pest or weed control at 62.5 g/ha / pest or weed control at 250 g/ha: evaluated after 13 days, 100=total damage to plant, 0=no damage to plant; for pest or weed control at 250 g/ha: 250 g ai/ha
In short: as §1

[5] = tested on: corn (Zea mays); assay: Test G Post-Emergence Protocol; settings: Zea mays, post-emergence, 312 h, read-out: Corn damage rating; for plant injury at 15.625 g/ha: 15.625 g ai/ha, evaluated after 13 days (100=total damage to plant; 0=no damage to plant); for plant injury at 62.5 g/ha: 62.5 g ai/ha; for plant injury at 62.5 g/ha / plant injury at 250 g/ha: evaluated after 13 days, 100=total damage to plant, 0=no damage to plant; for plant injury at 250 g/ha: 250 g ai/ha
In short: as §1

[6] = tested on: barnyardgrass (Echinochloa crus-galli); assay: Test G Post-Emergence Protocol; settings: Echinochloa crus-galli, post-emergence, 312 h, read-out: Barnyardgrass damage rating; for pest or weed control at 15.625 g/ha: 15.625 g ai/ha, evaluated after 13 days (100=total damage to plant; 0=no damage to plant); for pest or weed control at 62.5 g/ha: 62.5 g ai/ha; for pest or weed control at 62.5 g/ha / pest or weed control at 250 g/ha: evaluated after 13 days, 100=total damage to plant, 0=no damage to plant; for pest or weed control at 250 g/ha: 250 g ai/ha
In short: as §1

[7] = tested on: giant foxtail (Setaria faberi); assay: Test G Pre-Emergence Protocol; settings: Setaria faberi, pre-emergence, 312 h, evaluated after 13 days; for pest or weed control at 15.625 g/ha: 15.625 g ai/ha; for pest or weed control at 15.625 g/ha / pest or weed control at 250 g/ha: read-out: Foxtail, Giant damage rating (100=total damage to plant; 0=no damage to plant); for pest or weed control at 62.5 g/ha: 62.5 g ai/ha, 100=total damage to plant, 0=no damage to plant, read-out: Foxtail, Giant damage rating; for pest or weed control at 250 g/ha: 250 g ai/ha
In short: (§2)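 Spraying took place one day after sowing, at 15.625, 62.5 or 250 g/ha, using an acetone/water (50:50) spray solution containing 0.5% Tween 20. Plants were kept under glasshouse conditions (24/16 °C, 14 h light, 65% humidity, watered twice daily), and injury was rated 0–100 at day 13.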

[8] = tested on: velvetleaf (Abutilon theophrasti); assay: Test G Pre-Emergence Protocol; settings: Abutilon theophrasti, pre-emergence, 312 h, evaluated after 13 days; for pest or weed control at 15.625 g/ha: 15.625 g ai/ha; for pest or weed control at 15.625 g/ha / pest or weed control at 250 g/ha: read-out: Velvetleaf damage rating (100=total damage to plant; 0=no damage to plant); for pest or weed control at 62.5 g/ha: 62.5 g ai/ha, 100=total damage to plant, 0=no damage to plant, read-out: Velvetleaf damage rating; for pest or weed control at 250 g/ha: 250 g ai/ha
In short: as §2

[9] = tested on: redroot pigweed (Amaranthus retroflexus); assay: Test G Pre-Emergence Protocol; settings: Amaranthus retroflexus, pre-emergence, 312 h, evaluated after 13 days; for pest or weed control at 15.625 g/ha: 15.625 g ai/ha; for pest or weed control at 15.625 g/ha / pest or weed control at 250 g/ha: read-out: Pigweed, Redroot damage rating (100=total damage to plant; 0=no damage to plant); for pest or weed control at 62.5 g/ha: 62.5 g ai/ha, 100=total damage to plant, 0=no damage to plant, read-out: Pigweed, Redroot damage rating; for pest or weed control at 250 g/ha: 250 g ai/ha
In short: as §2

[10] = tested on: ivy-leaved morning glory (Ipomoea hederacea); assay: Test G Pre-Emergence Protocol; settings: Ipomoea, pre-emergence, 312 h, evaluated after 13 days; for pest or weed control at 15.625 g/ha: 15.625 g ai/ha; for pest or weed control at 15.625 g/ha / pest or weed control at 250 g/ha: read-out: Morningglory, Ivy-leaved damage rating (100=total damage to plant; 0=no damage to plant); for pest or weed control at 62.5 g/ha: 62.5 g ai/ha, 100=total damage to plant, 0=no damage to plant, read-out: Morningglory, Ivy-leaved damage rating; for pest or weed control at 250 g/ha: 250 g ai/ha
In short: as §2

[11] = tested on: corn (Zea mays); assay: Test G Pre-Emergence Protocol; settings: Zea mays, pre-emergence, 312 h, evaluated after 13 days; for plant injury at 15.625 g/ha: 15.625 g ai/ha; for plant injury at 15.625 g/ha / plant injury at 250 g/ha: read-out: Corn damage rating (100=total damage to plant; 0=no damage to plant); for plant injury at 62.5 g/ha: 62.5 g ai/ha, 100=total damage to plant, 0=no damage to plant, read-out: Corn damage rating; for plant injury at 250 g/ha: 250 g ai/ha
In short: as §2

[12] = tested on: barnyardgrass (Echinochloa crus-galli); assay: Test G Pre-Emergence Protocol; settings: Echinochloa crus-galli, pre-emergence, 312 h, evaluated after 13 days; for pest or weed control at 15.625 g/ha: 15.625 g ai/ha; for pest or weed control at 15.625 g/ha / pest or weed control at 250 g/ha: read-out: Barnyardgrass damage rating (100=total damage to plant; 0=no damage to plant); for pest or weed control at 62.5 g/ha: 62.5 g ai/ha, 100=total damage to plant, 0=no damage to plant, read-out: Barnyardgrass damage rating; for pest or weed control at 250 g/ha: 250 g ai/ha
In short: as §2

CN1C[C@H](c2cc(C(F)(F)F)cc(C(F)(F)F)c2)[C@@H](C(=O)Nc2ccccc2S(C)(=O)=O)C1=O (racemic) [Compound 1794]
pest or weed control at 15.625 g/ha [1]: 0% | pest or weed control at 62.5 g/ha [1]: 60% | pest or weed control at 250 g/ha [1]: 80% | pest or weed control at 15.625 g/ha [2]: 0% | pest or weed control at 62.5 g/ha [2]: 0% | pest or weed control at 250 g/ha [2]: 10% | pest or weed control at 15.625 g/ha [3]: 0% | pest or weed control at 62.5 g/ha [3]: 40% | pest or weed control at 250 g/ha [3]: 70% | pest or weed control at 15.625 g/ha [4]: 20% | pest or weed control at 62.5 g/ha [4]: 50% | pest or weed control at 250 g/ha [4]: 70% | plant injury at 15.625 g/ha [5]: 20% | plant injury at 62.5 g/ha [5]: 50% | plant injury at 250 g/ha [5]: 70% | pest or weed control at 15.625 g/ha [6]: 0% | pest or weed control at 62.5 g/ha [6]: 40% | pest or weed control at 250 g/ha [6]: 70% | pest or weed control at 15.625 g/ha [7]: 30% | pest or weed control at 62.5 g/ha [7]: 60% | pest or weed control at 250 g/ha [7]: 90% | pest or weed control at 15.625 g/ha [8]: 0% | pest or weed control at 62.5 g/ha [8]: 0% | pest or weed control at 250 g/ha [8]: 0% | pest or weed control at 15.625 g/ha [9]: 0% | pest or weed control at 62.5 g/ha [9]: 0% | pest or weed control at 250 g/ha [9]: 80% | pest or weed control at 15.625 g/ha [10]: 0% | pest or weed control at 62.5 g/ha [10]: 0% | pest or weed control at 250 g/ha [10]: 10% | plant injury at 15.625 g/ha [11]: 30% | plant injury at 62.5 g/ha [11]: 50% | plant injury at 250 g/ha [11]: 80% | pest or weed control at 15.625 g/ha [12]: 0% | pest or weed control at 62.5 g/ha [12]: 40% | pest or weed control at 250 g/ha [12]: 80%

CN1C[C@H](c2ccc(C(F)(F)F)c(C(F)(F)F)c2)[C@@H](C(=O)Nc2ccccc2S(C)(=O)=O)C1=O (racemic) [Compound 1799]
pest or weed control at 15.625 g/ha [1]: 20% | pest or weed control at 62.5 g/ha [1]: 70% | pest or weed control at 250 g/ha [1]: 70% | pest or weed control at 15.625 g/ha [2]: 0% | pest or weed control at 62.5 g/ha [2]: 20% | pest or weed control at 250 g/ha [2]: 10% | pest or weed control at 15.625 g/ha [3]: 0% | pest or weed control at 62.5 g/ha [3]: 60% | pest or weed control at 250 g/ha [3]: 70% | pest or weed control at 15.625 g/ha [4]: 10% | pest or weed control at 62.5 g/ha [4]: 60% | pest or weed control at 250 g/ha [4]: 30% | plant injury at 15.625 g/ha [5]: 10% | plant injury at 62.5 g/ha [5]: 60% | plant injury at 250 g/ha [5]: 70% | pest or weed control at 15.625 g/ha [6]: 0% | pest or weed control at 62.5 g/ha [6]: 60% | pest or weed control at 250 g/ha [6]: 70% | pest or weed control at 15.625 g/ha [7]: 50% | pest or weed control at 62.5 g/ha [7]: 90% | pest or weed control at 250 g/ha [7]: 90% | pest or weed control at 15.625 g/ha [8]: 0% | pest or weed control at 62.5 g/ha [8]: 0% | pest or weed control at 250 g/ha [8]: 20% | pest or weed control at 15.625 g/ha [9]: 0% | pest or weed control at 62.5 g/ha [9]: 10% | pest or weed control at 250 g/ha [9]: 40% | pest or weed control at 15.625 g/ha [10]: 0% | pest or weed control at 62.5 g/ha [10]: 0% | pest or weed control at 250 g/ha [10]: 0% | plant injury at 15.625 g/ha [11]: 0% | plant injury at 62.5 g/ha [11]: 70% | plant injury at 250 g/ha [11]: 80% | pest or weed control at 15.625 g/ha [12]: 10% | pest or weed control at 62.5 g/ha [12]: 70% | pest or weed control at 250 g/ha [12]: 70%
